What was measured:
[1] = target: T1, Xanthine oxidase (Mus musculus, UniProt Q00519); test: Xanthine oxidase inhibition (in vitro), mouse small intestine xanthine oxidase solution, HPLC of uric acid; format: biochemical, mouse (ICR strain mice; settings: xanthine substrate, incubated at 37° C. for 5 minutes; HPLC UV 292 nm
T1 construct: The small intestine was homogenized in 4-fold volume of cooled phosphate buffered saline solution (PBS) and then centrifuged; from tissue; host or cells: small intestine of ICR strain mice; dialysed supernatant of a 105,000 g centrifugation
Method: (1) Preparation of Xanthine Oxidase Solution
ICR strain mice were decapitated and the small intestine of each mouse was rapidly perfused with cooled physiological saline solution and removed. The small intestine was homogenized in 4-fold volume of cooled phosphate buffered saline solution (PBS) and then centrifuged at 105,000 g for 60 minutes. The supernatant fluid was dialyzed overnight against PBS. The dialyzed solution thus prepared was stored at -20° C. until used.
(2) Preparation of the Solution Containing the Present Compound
The compound of this invention was dissolved in DMSO (200 μl) and 2N NaOH (100 μl), and then PBS was added to prepare a solution (25 ml) containing 10^-3 M of the compound of this invention. This solution was diluted with PBS to prepare solutions containing the compound in the concentration of 10^-4, 10^-5, 10^-6, 10^-7, 10^-8, 10^-9, 10^-10, and 10^-11 M, respectively.
(3) Method for the Measurement
The assay mixture, consisted of the composition mentioned below, was incubated at 37° C. for 5 minutes. The reaction was stopped by heating in boiling water for one minute. Twenty microliters of the supernatant was analyzed by high performance liquid chromatography (HPLC) under the conditions mentioned below.
Xanthine oxidase solution (diluted in 4-folds with PBS): 200 μl
Solution containing the present compound: 200 μl
Column: osmosil packed column (.phi. 4. mm×150 mm, 5C18×300)
(§1) Eluting solution: 10 mM phosphate buffer (pH 6.0)
(§2) Retention time: 2.4 minutes (uric acid)
(4) Percent Inhibition of the Compound Against Xanthine Oxidase
The percent inhibition was calculated by the following equation. [formula]
As to each of the solutions containing the present compound as prepared in the above (2), the percent inhibition was calculted, and IC50 values were obtained from a plot of the percent inhibition against the log of the concentration of the compound of this invention.

[2] = test system: uric acid in serum; test: Lowering effect of test compound on the level of uric acid in serum (in vivo, oral administration); design: species or system mouse (normal male ICR mice); settings: Mus musculus, 4 hours after administration, male ICR mice, suspended in 0.5% CMC-Na, read-out: in vivo Lowering rate (%) of uric acid in serum (in 4 hours)
Method: Experiment 2 (In Vivo: Oral Administration)
(1) Animals, Method of Administration and Sampling of Serum
Normal male ICR mice (weighting about 30 g), were provided normal diet and tap water ad libitum. A test compound suspended in 0.5% CMC-Na was administered orally to the mice (each group: 6 mice) in a dose of 5 mg/kg.
(2) Measurement of Amount of Uric Acid in Serum
To the serum (200 μl) was added 10% perchloric acid (100 μl), and the mixture was centrifuged. To the supernatant fluid (100 μl) was added 0.2M Na2 HPO4 (200 μl), and the mixture (20 μl) was analyzed by HPLC to measure the amount of uric acid. The HPLC was carried out under the following conditions.
Column: Cosmosil packed column (.phi. 4.6 mm×150 mm, 5C18 -300)
as §1, §2
(3) Lowering Effect of Test Compound on the Level of Uric Acid in Serum
The lowering rate of uric acid in serum was calculated by the following equation. [formula]

T1 sequence (Q00519 whole entry): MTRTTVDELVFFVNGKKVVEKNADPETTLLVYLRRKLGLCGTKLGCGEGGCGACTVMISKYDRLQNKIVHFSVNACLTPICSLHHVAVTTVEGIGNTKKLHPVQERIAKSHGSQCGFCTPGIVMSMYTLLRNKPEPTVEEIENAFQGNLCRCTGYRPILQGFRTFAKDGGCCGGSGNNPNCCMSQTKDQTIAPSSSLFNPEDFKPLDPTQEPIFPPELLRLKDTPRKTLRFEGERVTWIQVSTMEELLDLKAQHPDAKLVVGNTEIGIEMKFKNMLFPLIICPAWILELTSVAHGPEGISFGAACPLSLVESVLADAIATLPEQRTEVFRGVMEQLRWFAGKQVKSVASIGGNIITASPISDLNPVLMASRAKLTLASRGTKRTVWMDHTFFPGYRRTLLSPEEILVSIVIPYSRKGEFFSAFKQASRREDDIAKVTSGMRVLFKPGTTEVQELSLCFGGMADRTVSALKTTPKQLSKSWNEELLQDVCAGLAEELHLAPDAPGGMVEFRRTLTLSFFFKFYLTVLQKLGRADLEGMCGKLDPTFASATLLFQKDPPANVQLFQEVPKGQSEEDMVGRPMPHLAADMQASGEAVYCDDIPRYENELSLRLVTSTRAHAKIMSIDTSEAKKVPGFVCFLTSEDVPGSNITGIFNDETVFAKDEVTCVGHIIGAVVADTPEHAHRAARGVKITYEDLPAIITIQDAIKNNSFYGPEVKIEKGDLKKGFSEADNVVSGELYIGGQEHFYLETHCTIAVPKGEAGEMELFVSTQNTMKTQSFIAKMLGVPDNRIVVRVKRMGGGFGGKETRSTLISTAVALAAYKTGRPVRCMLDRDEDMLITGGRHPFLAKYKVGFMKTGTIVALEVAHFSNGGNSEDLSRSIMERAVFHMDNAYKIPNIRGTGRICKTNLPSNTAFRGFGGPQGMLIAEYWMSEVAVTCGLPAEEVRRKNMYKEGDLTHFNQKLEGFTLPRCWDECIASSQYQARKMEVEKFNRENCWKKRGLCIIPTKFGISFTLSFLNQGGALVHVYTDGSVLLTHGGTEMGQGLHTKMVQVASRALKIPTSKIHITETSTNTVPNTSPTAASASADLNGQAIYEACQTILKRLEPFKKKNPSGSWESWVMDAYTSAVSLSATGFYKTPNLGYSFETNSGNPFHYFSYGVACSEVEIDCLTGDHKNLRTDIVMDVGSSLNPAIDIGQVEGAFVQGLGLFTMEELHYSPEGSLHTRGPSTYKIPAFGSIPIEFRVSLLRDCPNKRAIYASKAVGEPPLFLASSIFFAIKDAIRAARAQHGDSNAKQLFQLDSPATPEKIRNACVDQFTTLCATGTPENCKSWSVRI

SMILES | IC50 [1] | inhibition in vivo at 5 mg/kg [2]
Cc1cc(-c2cnn3c(O)ncnc23)ccc1[S+]([O-])c1ccccc1 (stereo not shown) [Example 171, 4-Hydroxy-8-(3-methyl-4-phenylsulfinylphenyl)pyrazolo[1,5-a]-1,3,5-triazine] | 2.4 nM | 73.6%
CCSc1ccc(-c2cnn3c(O)ncnc23)cc1C [Example 31, 8-(4-Ethylthio-3-methylphenyl)-4-hydroxypyrazolo[1,5-a]-1,3,5-triazine] | 10 nM | 63.5%
[O-][S+](c1ccccc1)c1ccc(-c2cnn3c(O)ncnc23)cc1 (stereo not shown) [Example 170, 4-Hydroxy-8-(4-phenylsulfinylphenyl)pyrazolo[1,5-a]-1,3,5-triazine] | 8 nM | 57.2%
CSc1ccc(-c2cnn3c(O)ncnc23)cc1C [Example 30, 4-Hydroxy-8-(3-methyl-4-methylthiophenyl)pyrazolo[1,5-a]-1,3,5-triazine] | 71 nM | 47%
CSc1cc(F)c(-c2cnn3c(O)ncnc23)cc1C [Example 54, 8-(2-Fluoro-5-methyl-4-methylthiophenyl)-4hydroxypyrazolo[1,5-a]-1,3,5-triazine] | 550 nM | 65.2%

Source: patent US4824834A, “Pyrazolotriazine compounds” (Otsuka Pharmaceutical Company, Limited, priority 1986, dated 1989)
